Experimental data published in PMC2033546, “Effects of somatostatin analogue RC-160 and bombesin/gastrin-releasing peptide antagonists on the growth of human small-cell and non-small-cell lung carcinomas in nude mice” (British Journal of Cancer, 1994).

Experiments:
[1] = test system: EGF receptors; details: various cancer lines and cancer specimens; ref Liebow et al., 1992; cited from earlier work
Excerpt: (§1) Br. J. Cancer (1994). 70, 886 892 ? Macmillan Press Ltd..

[2] = test system: SCLC xenografts; details: nude mice; ref Alexander et al., 1988; cited from earlier work
Excerpt: as §1

[3] = test system: SCLC; details: in vitro; ref Carney et al., 1987; cited from earlier work
Excerpt: as §1

[4] = test system: human SCLC cell line NCI-H69; assay: Growth of H69 SCLC xenografts in nude mice; format: in vivo, human (xenograft in male athymic nude mice)
Excerpt: (§2) Br. J. Cancer (1994). 70, 886 892 ? Macmillan Press Ltd.. […] Bombesin GRP antagonists. […] Lung carcinoma is the leading cause of cancer-related deaths in the western world. It is estimated that in 1992 there were approximately 168,000 new cases of lung cancer in the US and that about 146,000 deaths occurred from this disease (Boring et al., 1992). […] The growth factors such as bombesin/gastrin-releasing pep- tide (GRP), epidermal growth factor, (EGF), transforming growth factor a (TGF-x) and insulin-like growth factor I(IGF-I) appear to play a role in the proliferation and pro- gression of lung cancer (Cuttitta et al., 1985; Veale et al., 1987; Minuto et al., 1988; Siegfried & Owens, 1988; Macaulay et al., 1990; Tateishi et al., 1991; Damstrup et al., 1992; Sethi & Rozengurt, 1992; Rabiasz et al., 1992; Moody & Cuttitta, 1993). […] Tpi is 2,3,4,9-tetrahydro- Correspondence: A.V. Schally (151). VA Medical Center, 1601 Per- dido Street. New Orleans, LA 70146. USA. Received 1 March 1994; and in revised form 5 July 1994. Br. J. Cancer (1994), 70, 886-892 C Macmillan Press Ltd., 1994 PEPTIDE ANALOGUES IN LUNG CANCER 8U7 lH-pyrido [3,4bjindol-3-carboxylic acid, a conformationally constrained secondary amine derivate of tryptophan and Tac is thiazolidine-4-carboxylic acid. […] Animals Male athymic NCr nulmu nude mice, approximately 6 weeks old on arrival, were obtained from the NCI (Bethesda, MD, USA) and maintained under pathogen-limited conditions. Cell lines The human SCLC cell line NCI-H69, was obtained from the American Type Cell Culture (ATCC), Rockville, MD, USA and the non-SCLC cell line NCI-H157, from Dr H. Oie, NCI-Navy Medical Oncology Branch, Bethesda, MD, USA. These cell lines were cultured in RPMI-1640 medium supple- mented with 4 mM L-glutamine, 50 units ml-I penicilln G sodium, SOigml-' streptomycin sulphate, 0.125pgml-' amphotericin B and 10% fetal bovine serum at 3TC in a humidified 95% air/5% carbon dioxide atmosphere. CeLs were passaged weekly and routinely monitored for myco- plasma contamination using a detection kit (Boehringer- Mannheim, Mannheim, Germany). All culture media com- ponents were purchased from Gibco (Grand Island, NY, USA). Receptor assays Preparation of membranes for receptor studies was described previously (Halmos et al., 1993). Iodinated EGF and IGF-I were purchased from Amersham (Arlington Heights, IL, USA). Radioiodination of other peptides and receptor bind- ing of EGF, IGF-I, somatostatin and bombesin/GRP were performed as previously described (Srkalovic et al., 1989; Szepeshazi et al., 1992). Complete displacement assays on tumour membranes were done only once because of the shortage of tumour material. The LIGAND PC computerised curve-fitting programme of Munson and Rodbard (1980) was used to determine the types of receptor binding, dissociation constant (Kd) values, and the maximal binding capacity (BDj) of receptors. In order to determine the specificity of the binding sites for radiolabelled EGF, IGF-I, somatostatin and bombesin to lung cancer membranes, various structuraly related and unrelated peptides were tested for their ability to inhibit the binding of the tracers. Histological procedure The histological procedures were the same as described previously (Szepeshazi et al., 1991, 1992). The number of mitotic and apoptotic cells per 1,000 cells was determined, and the percentage area of necrosis in tumour sections was examined using the point-counting method (Szepeshazi et al., 1991, 1992), in which the crossing points of an ocular net that coincide with necrosis in various sections are counted. Radiommunoassays Serum levels of growth hormone were determined by double- antibody radioimmunoassay (RIA) using materials supplied by the National Hormone and Pituitary Program of the National Institute of Diabetes and Digestive and Kidney Diseases (NIDDK).

[5] = test system: non-SCLC cell line NCI-H157; assay: Growth of H157 non-SCLC xenografts in nude mice; format: in vivo, human (xenograft in male athymic nude mice); details: RC-160 100 µg/day, RC-3095 20 µg/day
Excerpt: as §2

[6] = test system: SCLC H69 tumours; assay: Histology (mitosis, apoptosis, necrosis) of SCLC H69 tumours; format: in vivo, human (xenograft in nude mice)
Excerpt: as §2

[7] = test system: EGF receptors in membranes of SCLC H69 tumours; assay: EGF receptor binding on H69 tumour membranes after in vivo treatment; set-up: species or system human; details: Table IV, Experiment I (SCLC-H69); tumour membranes after in vivo treatment; control 278; ten-point displacement in triplicate tubes, done once
Excerpt: as §2, with “In order to determine the specificity of the binding sites for radiolabelled EGF, IGF-I, somatostatin and bombesin to lung cancer membranes, various structuraly related and unrelated peptides were tested for their ability to inhibit the binding of the tracers. Histological procedure The histological procedures were the same as described previously (Szepeshazi et al., 1991, 1992).” left out

[8] = test system: EGF receptors in membranes of non-SCLC H157 tumours; assay: EGF receptor binding on H157 tumour membranes after in vivo treatment; set-up: species or system human
Excerpt: as §2, with “Receptor assays Preparation of membranes for receptor studies was described previously (Halmos et al., 1993). Iodinated EGF and IGF-I were purchased from Amersham (Arlington Heights, IL, USA). Radioiodination of other peptides and receptor bind- ing of EGF, IGF-I, somatostatin and bombesin/GRP were performed as previously described (Srkalovic et al., 1989; Szepeshazi et al., 1992). Complete displacement assays on tumour membranes were done only once because of the shortage of tumour material. The LIGAND PC computerised curve-fitting programme of Munson and Rodbard (1980) was used to determine the types of receptor binding, dissociation constant (Kd) values, and the maximal binding capacity (BDj) of receptors. In order to determine the specificity of the binding sites for radiolabelled EGF, IGF-I, somatostatin and bombesin to lung cancer membranes, various structuraly related and unrelated peptides were tested for their ability to inhibit the binding of the tracers. Histological procedure The histological procedures were the same as described previously (Szepeshazi et al., 1991, 1992).” left out

[9] = test system: IGF-I receptors in membranes of SCLC H69 tumours; assay: IGF-I receptor binding on H69 tumour membranes after in vivo treatment; set-up: species or system human; details: Table IV, Experiment I (SCLC-H69), control 294, done once
Excerpt: as §2, with “Receptor assays Preparation of membranes for receptor studies was described previously (Halmos et al., 1993). Iodinated EGF and IGF-I were purchased from Amersham (Arlington Heights, IL, USA). Radioiodination of other peptides and receptor bind- ing of EGF, IGF-I, somatostatin and bombesin/GRP were performed as previously described (Srkalovic et al., 1989; Szepeshazi et al., 1992). Complete displacement assays on tumour membranes were done only once because of the shortage of tumour material. The LIGAND PC computerised curve-fitting programme of Munson and Rodbard (1980) was used to determine the types of receptor binding, dissociation constant (Kd) values, and the maximal binding capacity (BDj) of receptors. In order to determine the specificity of the binding sites for radiolabelled EGF, IGF-I, somatostatin and bombesin to lung cancer membranes, various structuraly related and unrelated peptides were tested for their ability to inhibit the binding of the tracers. Histological procedure The histological procedures were the same as described previously (Szepeshazi et al., 1991, 1992).” left out

[10] = test system: IGF-I receptors in membranes of non-SCLC H157 tumours; assay: IGF-I receptor binding on H157 tumour membranes after in vivo treatment; set-up: species or system human
Excerpt: as §2, with “Receptor assays Preparation of membranes for receptor studies was described previously (Halmos et al., 1993). Iodinated EGF and IGF-I were purchased from Amersham (Arlington Heights, IL, USA). Radioiodination of other peptides and receptor bind- ing of EGF, IGF-I, somatostatin and bombesin/GRP were performed as previously described (Srkalovic et al., 1989; Szepeshazi et al., 1992). Complete displacement assays on tumour membranes were done only once because of the shortage of tumour material. The LIGAND PC computerised curve-fitting programme of Munson and Rodbard (1980) was used to determine the types of receptor binding, dissociation constant (Kd) values, and the maximal binding capacity (BDj) of receptors. In order to determine the specificity of the binding sites for radiolabelled EGF, IGF-I, somatostatin and bombesin to lung cancer membranes, various structuraly related and unrelated peptides were tested for their ability to inhibit the binding of the tracers. Histological procedure The histological procedures were the same as described previously (Szepeshazi et al., 1991, 1992).” left out

[11] = test system: Bombesin/GRP receptors in membranes of SCLC H69 tumours; assay: Bombesin/GRP receptor binding on H69 tumour membranes after in vivo treatment; set-up: species or system human; details: after in vivo treatment
Excerpt: as §2, with “In order to determine the specificity of the binding sites for radiolabelled EGF, IGF-I, somatostatin and bombesin to lung cancer membranes, various structuraly related and unrelated peptides were tested for their ability to inhibit the binding of the tracers. Histological procedure The histological procedures were the same as described previously (Szepeshazi et al., 1991, 1992).” left out

[12] = test system: Somatostatin receptors in membranes of SCLC H69 tumours; assay: Somatostatin receptor binding on H69 tumour membranes after in vivo treatment; set-up: species or system human; details: Table IV, Experiment I (SCLC-H69); tumour membranes after in vivo treatment; control 450; done once
Excerpt: as §2, with “In order to determine the specificity of the binding sites for radiolabelled EGF, IGF-I, somatostatin and bombesin to lung cancer membranes, various structuraly related and unrelated peptides were tested for their ability to inhibit the binding of the tracers. Histological procedure The histological procedures were the same as described previously (Szepeshazi et al., 1991, 1992).” left out

[13] = test system: EGF receptor levels in tumour membranes (pancreatic, prostatic, mammary and colorectal cancers); details: associated with inhibition of growth of pancreatic, ref Radulovic et al., 1991b, Szepeshazi et al., 1991, 1992, Pinski et al., 1994a; cited from earlier work
Excerpt: as §1

Bombesin
Effect on phosphorylation of EGF receptors (in words) [1]: enhance the phosphorylation of EGF receptors | Effect on growth of SCLC xenografts (in words) [2]: stimulates | Effect on clonal growth of SCLC and DNA synthesis (in words) [3]: stimulates the clonal growth of SCLC and DNA synthesis in vitro

[D-Tpi6, Leu'3, *(CH2NH)Leu'4] bombesin (6- 14) [RC-3095]
Tumour volume, final ([4]; Table I, Experiment I (SCLC-H69), 5 weeks s.c. peritumoral, RC-160 100 µg/day, RC-3440, RC-3095, RC-3950-II 20 µg/day per animal, control 249.7 ? 182.3, means ? s.d., ten animals per group, *P<0.05 vs control): 80.2 mm³ | Tumour weight ([4]; Table I, Experiment I (SCLC-H69), 5 weeks s.c. peritumoral, RC-160 100 µg/day, antagonists 20 µg/day per animal, control 0.27 ? 0.19, means ? s.d., *P<0.05 vs control): 0.081 0.06* g | Tumour doubling time ([4]; Table I, Experiment I (SCLC-H69), 5 weeks, RC-160 100 µg/day, antagonists 20 µg/day per animal s.c., control 7.5): 12.2 days | Growth of H69 SCLC tumours (in words) ([4]; s.c. peritumorally, RC-160 100 µg, bombesin/GRP antagonists 20 µg per animal per day, 5 weeks): inhibited the growth of H69 SCLC tumours | Growth of H157 non-SCLC tumours (in words) ([5]; 4 weeks s.c., SB-75 100 µg/day per animal, vs control): No significant reduction in final tumour volume, tumour weight and tumour growth | Tumour volume, final ([5]; Table I, Experiment II (non-SCLC H157), 4 weeks s.c. peritumoral, SB-75 100 µg/day per animal, control 1580.3 ? 455.7, means ? s.d., ten animals per group, *P<0.05 vs control): 913 mm³ | Tumour doubling time ([5]; Table I, Experiment II (non-SCLC H157), 4 weeks s.c., SB-75 100 µg/day, control 3.88): 4.42 days | Extent of necrosis (in words) ([6]; SCLC H69 tumours, point-counting method, differences from control not significant statistically): less exten- sive | Apoptotic index ([6]; Table II, Experiment I (SCLC H69), apoptotic cells per 1,000 cells, control 35.4 ? 2.6, means ? s.e.): 36.5 | Mitotic index ([6]; Table II, Experiment I (SCLC H69), mitotic cells per 1,000 cells, control 37.9 ? 2.9, means ? s.e., *P < 0.05 vs control): 28.8 | EGF maximal binding capacity (Bmax) [7]: 102 fmol mg' protein | EGF maximal binding capacity (Bmax) ([8]; Table IV, Experiment II (non-SCLC H157), tumour membranes after in vivo treatment, control 249, done once): 207 fmol mg' protein | EGF binding capacity on H157 tumours (in words) ([8]; after in vivo treatment): no effect | IGF-I maximal binding capacity (Bmax) [9]: 300 fmol mg' protein | IGF-I maximal binding capacity (Bmax) ([10]; Table IV, Experiment II (non-SCLC H157), tumour membranes after in vivo treatment, control 257, done once): 270 fmol mg' protein | IGF-I binding sites on H157 tumours (in words) ([10]; after in vivo treatment): no effect | Concentration of receptors for bombesin/GRP on H69 tumours (in words) [11]: reduced to non-detectable levels | Somatostatin maximal binding capacity (Bmax) [12]: 480 fmol mg-'protein | EGF receptor levels in tumour membranes (in words) [13]: major decrease in EGF receptor levels | Effect on phosphorylation of EGF receptors (in words) [1]: inhibits these effects
